Calls of active or inactive are those of the source. No cut-off for these calls is given here.
How the values were obtained:
Assay type in all cases: functional
Hs-578T = test: Cytotoxicity against human Hs 578T cells at 10 uM
MDA-MB-468 = test: Cytotoxicity against human MDA-MB-468 cells at 10 uM; conditions: read-out: GI
MCF7 = test: Cytotoxicity against human MCF7 cells at 10 uM; conditions: read-out: GI
T47D = test: Cytotoxicity against human T47D cells at 10 uM; conditions: read-out: GI
DU-145 = test: Cytotoxicity against human DU145 cells at 10 uM
PC-3 = test: Cytotoxicity against human PC3 cells at 10 uM; conditions: read-out: GI
A498 = test: Cytotoxicity against human A498 cells at 10 uM
NCI/ADR-RES = test: Cytotoxicity against human NCI-ADR-RES cells at 10 uM
LOX IMVI = test: Cytotoxicity against human LOXIMVI cells at 10 uM; conditions: read-out: GI
OVCAR-3 = test: Cytotoxicity against human OVCAR3 cells at 10 uM
UACC-62 = test: Cytotoxicity against human UACC62 cells at 10 uM
SK-MEL-2 = test: Cytotoxicity against human SK-MEL-2 cells at 10 uM
SF-268 = test: Cytotoxicity against human SF268 cells at 10 uM
SW-620 = test: Cytotoxicity against human SW620 cells at 10 uM
SNB-75 = test: Cytotoxicity against human SNB75 cells at 10 uM; conditions: read-out: GI
KM12 = test: Cytotoxicity against human KM12 cells at 10 uM
HT-29 = test: Cytotoxicity against human HT-29 cells at 10 uM
HOP-92 = test: Cytotoxicity against human HOP92 cells at 10 uM; conditions: read-out: GI
NCI-H460 = test: Cytotoxicity against human NCI-H460 cells at 10 uM
A549 = test: Cytotoxicity against human A549 cells at 10 uM
SR = test: Cytotoxicity against human SR cells at 10 uM
MOLT-4 = test: Cytotoxicity against human MOLT4 cells at 10 uM; conditions: read-out: GI
RPMI-8226 = test: Cytotoxicity against human RPMI8226 cells at 10 uM
K562 = test: Cytotoxicity against human K562 cells at 10 uM; conditions: read-out: GI
HL-60(TB) = test: Cytotoxicity against human HL-60(TB) cells at 10 uM; conditions: read-out: GI

## Cc1cc(S(=O)(=O)NC(=N)Nc2nnc(S(N)(=O)=O)s2)c(SCc2ccccc2)cc1Cl
Hs-578T
  growth inhibition (GI): inactive
MDA-MB-468
  inhibition of growth at 10 µM: 11%
MCF7
  inhibition of growth at 10 µM: 11%
T47D
  inhibition of growth at 10 µM: 6%
DU-145
  growth inhibition (GI): inactive
PC-3
  inhibition of growth at 10 µM: 3%
A498
  growth inhibition (GI): inactive
NCI/ADR-RES
  growth inhibition (GI): inactive
LOX IMVI
  inhibition of growth at 10 µM: 4%
OVCAR-3
  growth inhibition (GI): inactive
UACC-62
  growth inhibition (GI): inactive
SK-MEL-2
  growth inhibition (GI): inactive
SF-268
  growth inhibition (GI): inactive
SW-620
  growth inhibition (GI): inactive
SNB-75
  inhibition of growth at 10 µM: 18%
KM12
  growth inhibition (GI): inactive
HT-29
  growth inhibition (GI): inactive
HOP-92
  inhibition of growth at 10 µM: 1%
NCI-H460
  growth inhibition (GI): inactive
A549
  growth inhibition (GI): inactive
SR
  growth inhibition (GI): inactive
MOLT-4
  inhibition of growth at 10 µM: 14%
RPMI-8226
  growth inhibition (GI): inactive
K562
  inhibition of growth at 10 µM: 2%
HL-60(TB)
  inhibition of growth at 10 µM: 15%
